Results reported in patent publication US11572398B2, “GLP-1 derivatives and uses thereof” (Novo Nordisk A/S, priority 2014, dated 2023).
Read-outs that look alike come from different tables or passages of the source.

How the values were obtained:
[1] = target: T1, human GLP-1 receptor (Homo sapiens, UniProt P43220); experiment: In vitro potency: CRE luciferase reporter gene assay in BHK cells expressing the human GLP-1 receptor; assay type: cell-based; conditions: whole cell reporter gene assay, BHK cells, human GLP-1 receptor; average of at least two replicates; read-out: EC50
T1 construct: expressed in transfected cells; host or cells: BHK cells (parent line BHKTS13), clone FCW467-12A; membrane preparation
Summary of the method: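 Whole-cell assay in stably transfected BHK cells carrying CRE-driven firefly luciferase, 5×10^3 cells/well, in assay buffer with 2% ovalbumin and 0.2% Pluronic F-68. Compound working solutions were 0.2 μM.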

[2] = target: T1, human GLP-1 receptor; experiment: GLP-1 receptor binding: competitive binding assay (125I-GLP-1, SPA) on isolated membranes at low and high HSA
[3] = Low HSA IC50, low HSA (max. 0.001% final assay concentration)
[4] = high HSA (2.0% final assay concentration), read-out: High HSA IC50

T1 sequence (P43220 24-463): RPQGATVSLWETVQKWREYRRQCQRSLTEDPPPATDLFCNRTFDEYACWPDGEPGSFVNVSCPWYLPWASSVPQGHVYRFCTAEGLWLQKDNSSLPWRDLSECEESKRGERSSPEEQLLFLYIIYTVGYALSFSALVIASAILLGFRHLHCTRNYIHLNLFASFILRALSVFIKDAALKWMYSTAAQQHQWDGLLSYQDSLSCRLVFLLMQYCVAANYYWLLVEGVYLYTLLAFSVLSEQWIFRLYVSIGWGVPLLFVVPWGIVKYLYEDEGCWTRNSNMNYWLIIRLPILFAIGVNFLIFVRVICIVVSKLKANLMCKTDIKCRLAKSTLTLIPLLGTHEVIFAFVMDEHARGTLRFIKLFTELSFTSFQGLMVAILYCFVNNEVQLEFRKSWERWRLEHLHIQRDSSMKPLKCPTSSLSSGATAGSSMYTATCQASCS

CC[C@H](C)[C@H](NC(=O)[C@H](Cc1ccccc1)NC(=O)[C@H](CCC(=O)O)NC(=O)[C@H](CCCNC(=N)N)NC(=O)[C@H](C)NC(=O)[C@H](C)NC(=O)[C@H](CCC(N)=O)NC(=O)[C@H](CCC(=O)O)NC(=O)[C@H](CCC(=O)O)NC(=O)[C@H](CC(C)C)NC(=O)[C@H](Cc1ccc(O)cc1)NC(=O)[C@H](CO)NC(=O)[C@H](CO)NC(=O)[C@@H](NC(=O)[C@H](CC(=O)O)NC(=O)[C@H](CO)NC(=O)[C@@H](NC(=O)[C@H](Cc1ccccc1)NC(=O)[C@@H](NC(=O)CNC(=O)[C@H](CCC(=O)O)NC(=O)C(C)(C)NC(=O)[C@@H](N)Cc1c[nH]cn1)[C@@H](C)O)[C@@H](C)O)C(C)C)C(=O)N[C@@H](C)C(=O)N[C@@H](Cc1c[nH]c2ccccc12)C(=O)N[C@@H](CC(C)C)C(=O)N[C@H](C(=O)N[C@@H](CCCNC(=N)N)C(=O)NCC(=O)N[C@@H](CCCNC(=N)N)C(=O)N[C@@H](CCCCNC(=O)CN(CCCNC(=O)COCCOCCNC(=O)COCCOCCNC(=O)COCCOCCNC(=O)COCCOCCNC(=O)COCCOCCNC(=O)CC[C@H](NC(=O)[C@H]1CC[C@H](CNC(=O)CCCNC(=O)CCCCCCCCCCCCCCCS(=O)(=O)O)CC1)C(=O)O)CCCNC(=O)COCCOCCNC(=O)COCCOCCNC(=O)COCCOCCNC(=O)COCCOCCNC(=O)COCCOCCNC(=O)CC[C@H](NC(=O)[C@H]1CC[C@H](CNC(=O)CCCNC(=O)CCCCCCCCCCCCCCCS(=O)(=O)O)CC1)C(=O)O)C(=O)O)C(C)C [Example 20, N{Epsilon-37}-[2-[bis[3-[[2-[2-[2-[[2-[2-[2-[[2-[2-[2-[[2-[2-[2-[[2-[2-[2-[[(4S)-4-carboxy-4-[[4-[[4-(16-sulfohexadecanoylamino)butanoylamino]methyl]cyclohexanecarbonyl]amino]butanoyl]amino]ethoxy]ethoxy]acetyl]amino]ethoxy]ethoxy]acetyl]amino]ethoxy]ethoxy]acetyl]amino]ethoxy]ethoxy]acetyl]amino]ethoxy]ethoxy]acetyl]amino]propyl]amino]acetyl]-[Aib8,Glu22,Arg26,Arg34,Lys37]-GLP-1-(7-37)-peptide]
EC50 [1]: 0.0016 nM
IC50 [2, 3]: 0.14 nM
IC50 [2, 4]: 3.7 nM

CC[C@H](C)[C@H](NC(=O)[C@H](Cc1ccccc1)NC(=O)[C@H](CCC(=O)O)NC(=O)[C@H](CCCNC(=N)N)NC(=O)[C@H](C)NC(=O)[C@H](C)NC(=O)[C@H](CCC(N)=O)NC(=O)[C@H](CCC(=O)O)NC(=O)[C@H](CCC(=O)O)NC(=O)[C@H](CC(C)C)NC(=O)[C@H](Cc1ccc(O)cc1)NC(=O)[C@H](CO)NC(=O)[C@H](CO)NC(=O)[C@@H](NC(=O)[C@H](CC(=O)O)NC(=O)[C@H](CO)NC(=O)[C@@H](NC(=O)[C@H](Cc1ccccc1)NC(=O)[C@@H](NC(=O)CNC(=O)[C@H](CCC(=O)O)NC(=O)C(C)(C)NC(=O)[C@@H](N)Cc1c[nH]cn1)[C@@H](C)O)[C@@H](C)O)C(C)C)C(=O)N[C@@H](C)C(=O)N[C@@H](Cc1c[nH]c2ccccc12)C(=O)N[C@@H](CC(C)C)C(=O)N[C@H](C(=O)N[C@@H](CCCNC(=N)N)C(=O)NCC(=O)N[C@@H](CCCNC(=N)N)C(=O)N[C@@H](CCCCNC(=O)CN(CCCNC(=O)COCCOCCNC(=O)COCCOCCNC(=O)COCCOCCNC(=O)COCCOCCNC(=O)[C@@H](N)CCCCNC(=O)[C@@H](N)CCCCNC(=O)CCCNC(=O)CCCCCCCCCCCCCCCS(=O)(=O)O)CCCNC(=O)COCCOCCNC(=O)COCCOCCNC(=O)COCCOCCNC(=O)COCCOCCNC(=O)[C@@H](N)CCCCNC(=O)[C@@H](N)CCCCNC(=O)CCCNC(=O)CCCCCCCCCCCCCCCS(=O)(=O)O)C(=O)O)C(C)C [Example 14, N{Epsilon-37}-[2-[bis[3-[[2-[2-[2-[[2-[2-[2-[[2-[2-[2-[[2-[2-[2-[[(2S)-2-amino-6-[[(2S)-2-amino-6-[4-(16-sulfohexadecanoylamino)butanoylamino]hexanoyl]amino]hexanoyl]amino]ethoxy]ethoxy]acetyl]amino]ethoxy]ethoxy]acetyl]amino]ethoxy]ethoxy]acetyl]amino]ethoxy]ethoxy]acetyl]amino]propyl]amino]acetyl]-[Aib8,Glu22,Arg26,Arg34,Lys37]-GLP-1-(7-37)-peptide]
EC50 [1]: 0.0063 nM
IC50 ([2]; low HSA (max. 0.001% final assay concentration), read-out: Low HSA IC50): 0.04 nM

CC[C@H](C)[C@H](NC(=O)[C@H](Cc1ccccc1)NC(=O)[C@H](CCC(=O)O)NC(=O)[C@H](CCCNC(=N)N)NC(=O)[C@H](C)NC(=O)[C@H](C)NC(=O)[C@H](CCC(N)=O)NC(=O)[C@H](CCC(=O)O)NC(=O)[C@H](CCC(=O)O)NC(=O)[C@H](CC(C)C)NC(=O)[C@H](Cc1ccc(O)cc1)NC(=O)[C@H](CO)NC(=O)[C@H](CO)NC(=O)[C@@H](NC(=O)[C@H](CC(=O)O)NC(=O)[C@H](CO)NC(=O)[C@@H](NC(=O)[C@H](Cc1ccccc1)NC(=O)[C@@H](NC(=O)CNC(=O)[C@H](CCC(=O)O)NC(=O)C(C)(C)NC(=O)[C@@H](N)Cc1c[nH]cn1)[C@@H](C)O)[C@@H](C)O)C(C)C)C(=O)N[C@@H](C)C(=O)N[C@@H](Cc1c[nH]c2ccccc12)C(=O)N[C@@H](CC(C)C)C(=O)N[C@H](C(=O)N[C@@H](CCCNC(=N)N)C(=O)NCC(=O)N[C@@H](CCCNC(=N)N)C(=O)N[C@@H](CCCCNC(=O)CN(CCCNC(=O)COCCOCCNC(=O)COCCOCCNC(=O)COCCOCCNC(=O)COCCOCCNC(=O)CC[C@H](NC(=O)[C@H]1CC[C@H](CNC(=O)CCCCCCCCCCCCCCCS(=O)(=O)O)CC1)C(=O)O)CCCNC(=O)COCCOCCNC(=O)COCCOCCNC(=O)COCCOCCNC(=O)COCCOCCNC(=O)CC[C@H](NC(=O)[C@H]1CC[C@H](CNC(=O)CCCCCCCCCCCCCCCS(=O)(=O)O)CC1)C(=O)O)C(=O)O)C(C)C [Example 22, N{Epsilon-37}-[2-[bis[3-[[2-[2-[2-[[2-[2-[2-[[2-[2-[2-[[2-[2-[2-[[(4S)-4-carboxy-4-[[4-[(16-sulfohexadecanoylamino)methyl]cyclohexanecarbonyl]amino]butanoyl]amino]ethoxy]ethoxy]acetyl]amino]ethoxy]ethoxy]acetyl]amino]ethoxy]ethoxy]acetyl]amino]ethoxy]ethoxy]acetyl]amino]propyl]amino]acetyl]-[Aib8,Glu22,Arg26,Arg34,Lys37]-GLP-1-(7-37)-peptide]
EC50 [1]: 0.0016 nM
IC50 [2, 3]: 0.12 nM
IC50 [2, 4]: 47 nM

CC[C@H](C)[C@H](NC(=O)[C@H](Cc1ccccc1)NC(=O)[C@H](CCC(=O)O)NC(=O)[C@H](CCCNC(=N)N)NC(=O)[C@H](C)NC(=O)[C@H](C)NC(=O)[C@H](CCC(N)=O)NC(=O)[C@H](CCC(=O)O)NC(=O)[C@H](CCC(=O)O)NC(=O)[C@H](CC(C)C)NC(=O)[C@H](Cc1ccc(O)cc1)NC(=O)[C@H](CO)NC(=O)[C@H](CO)NC(=O)[C@@H](NC(=O)[C@H](CC(=O)O)NC(=O)[C@H](CO)NC(=O)[C@@H](NC(=O)[C@H](Cc1ccccc1)NC(=O)[C@@H](NC(=O)CNC(=O)[C@H](CCC(=O)O)NC(=O)C(C)(C)NC(=O)[C@@H](N)Cc1c[nH]cn1)[C@@H](C)O)[C@@H](C)O)C(C)C)C(=O)N[C@@H](C)C(=O)N[C@@H](Cc1c[nH]c2ccccc12)C(=O)N[C@@H](CC(C)C)C(=O)N[C@H](C(=O)N[C@@H](CCCNC(=N)N)C(=O)NCC(=O)N[C@@H](CCCNC(=N)N)C(=O)N[C@@H](CCCCNC(=O)CN(CCCNC(=O)COCCOCCNC(=O)COCCOCCNC(=O)COCCOCCNC(=O)COCCOCCNC(=O)COCCOCCNC(=O)CC[C@H](NC(=O)[C@H]1CC[C@H](CNC(=O)CCCCCCCCCCCCCCCS(=O)(=O)O)CC1)C(=O)O)CCCNC(=O)COCCOCCNC(=O)COCCOCCNC(=O)COCCOCCNC(=O)COCCOCCNC(=O)COCCOCCNC(=O)CC[C@H](NC(=O)[C@H]1CC[C@H](CNC(=O)CCCCCCCCCCCCCCCS(=O)(=O)O)CC1)C(=O)O)C(=O)O)C(C)C [Example 23, N{Epsilon-37}-[2-[bis[3-[[2-[2-[2-[[2-[2-[2-[[2-[2-[2-[[2-[2-[2-[[2-[2-[2-[[(4S)-4-carboxy-4-[[4-[(16-sulfohexadecanoylamino)methyl]cyclohexanecarbonyl]amino]butanoyl]amino]ethoxy]ethoxy]acetyl]amino]ethoxy]ethoxy]acetyl]amino]ethoxy]ethoxy]acetyl]amino]ethoxy]ethoxy]acetyl]amino]ethoxy]ethoxy]acetyl]amino]propyl]amino]acetyl]-[Aib8,Glu22,Arg26,Arg34,Lys37]-GLP-1-(7-37)-peptide]
EC50 [1]: 0.0014 nM
IC50 [2, 3]: 0.14 nM
IC50 [2, 4]: 16 nM
